Literature values in patent US20050143441A1, “Novel medical combination treatment of obesity involving 4,5-dihydro-1H-pyrazole derivatives having CB1-antagonistic activity” (priority 2003, published 2005).
One block for each compound: values may come before it.

Experiments:
[1] = in vivo
[2] = tested on: excretion of fat from the diet; conditions: healthy male volunteers, 5 days
[3] = clinically obese patients
[4] = molecular target: T1, porcine pancreatic lipase (Sus scrofa, UniProt P00591)
T1 sequence (P00591 1-450): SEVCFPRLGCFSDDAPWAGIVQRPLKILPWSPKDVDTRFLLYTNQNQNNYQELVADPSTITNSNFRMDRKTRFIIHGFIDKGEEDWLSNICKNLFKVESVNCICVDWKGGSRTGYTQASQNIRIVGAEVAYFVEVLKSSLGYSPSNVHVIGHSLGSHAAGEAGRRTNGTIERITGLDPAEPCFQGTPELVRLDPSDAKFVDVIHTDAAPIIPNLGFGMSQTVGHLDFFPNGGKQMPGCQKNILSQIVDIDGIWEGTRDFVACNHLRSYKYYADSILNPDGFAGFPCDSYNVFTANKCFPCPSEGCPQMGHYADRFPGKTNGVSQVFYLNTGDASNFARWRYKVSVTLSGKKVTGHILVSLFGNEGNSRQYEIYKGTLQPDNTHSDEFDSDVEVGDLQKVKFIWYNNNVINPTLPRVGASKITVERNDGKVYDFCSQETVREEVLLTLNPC

plasma lipases = conditions: relative to THL
[5] = tested on: carragheenin induced swelling; conditions: mice

SMILES: CCCCCCCCCCCCCCCCOc1nc2ccc(C)cc2c(=O)o1 [ATL-962, 2-hexadecyloxy-6-methyl-4H-3,1-benzoxazin-4-one]
toxicity in preclinical studies [1]: no toxicity was observed | safety and tolerability, phase Ib [2]: safe and well tolerated | safety and tolerability, phase IIb [3]: safe and generally well tolerated

mode of inhibition of pancreatic lipase (irreversibility) [4]: irreversibly inhibit pancreatic lipase
SMILES: CCCCCCCCCC[C@@H]1C(=O)O[C@H]1C[C@H](CCCCCCC)OC(=O)CNC=O [Panclicin D]

mode of inhibition of pancreatic lipase (irreversibility) [4]: irreversibly inhibit pancreatic lipase
SMILES: CCCCCCC[C@@H](C[C@@H]1OC(=O)[C@H]1CCCCCCCC(C)C)OC(=O)CNC=O [Panclicin C]

mode of inhibition of pancreatic lipase (irreversibility) [4]: irreversibly inhibit pancreatic lipase
SMILES: CCCCCCCCCCCC[C@@H]1C(=O)O[C@H]1C[C@H](CCCCCCC)OC(=O)CNC=O [Panclicin E]

mode of inhibition of pancreatic lipase (irreversibility) [4]: irreversibly inhibit pancreatic lipase
SMILES: CCCCCCC[C@@H](C[C@@H]1OC(=O)[C@H]1CCCCCCCC(C)C)OC(=O)[C@H](C)NC=O [Panclicin A]
potency against plasma lipases compared with THL (plasma lipases): same potency as THL

SMILES: CCCCCCCCCCC[C@@H](C[C@@H]1OC(=O)[C@H]1CCCCCC)OC(=O)[C@H](CC(C)C)NC=O [tetrahydrolipstatin, (2S,3S,5S)-5-((S)-2-4-methylvaleryloxy)-2-heyl-3-hydroxy-hexadecanoic acid lactone]
fat excreted, average ([2]; orlistat 120 mg tid): 5.6 (+/−3.8) g/day

SMILES: CC[C@@H](C)[C@@H](O)[C@H](C)C(=O)[C@H](C)/C=C(\C)C[C@H](C)[C@@H]1OC(=O)[C@H]1CC [Ebelactone B]
carragheenin induced swelling [5]: reduces carragheenin induced swelling
